Laboratory results from patent US10160755B2 (Plexxikon Inc., priority 2015, dated 2018).

Experiments:
[1] = target: T1, FLT3-ITD (Homo sapiens, UniProt P36888); test: FLT3-ITD biochemical kinase assay (AlphaScreen)
T1 construct: FLT3-ITD; Invitrogen #PV6190
T1 sequence (P36888 1-993): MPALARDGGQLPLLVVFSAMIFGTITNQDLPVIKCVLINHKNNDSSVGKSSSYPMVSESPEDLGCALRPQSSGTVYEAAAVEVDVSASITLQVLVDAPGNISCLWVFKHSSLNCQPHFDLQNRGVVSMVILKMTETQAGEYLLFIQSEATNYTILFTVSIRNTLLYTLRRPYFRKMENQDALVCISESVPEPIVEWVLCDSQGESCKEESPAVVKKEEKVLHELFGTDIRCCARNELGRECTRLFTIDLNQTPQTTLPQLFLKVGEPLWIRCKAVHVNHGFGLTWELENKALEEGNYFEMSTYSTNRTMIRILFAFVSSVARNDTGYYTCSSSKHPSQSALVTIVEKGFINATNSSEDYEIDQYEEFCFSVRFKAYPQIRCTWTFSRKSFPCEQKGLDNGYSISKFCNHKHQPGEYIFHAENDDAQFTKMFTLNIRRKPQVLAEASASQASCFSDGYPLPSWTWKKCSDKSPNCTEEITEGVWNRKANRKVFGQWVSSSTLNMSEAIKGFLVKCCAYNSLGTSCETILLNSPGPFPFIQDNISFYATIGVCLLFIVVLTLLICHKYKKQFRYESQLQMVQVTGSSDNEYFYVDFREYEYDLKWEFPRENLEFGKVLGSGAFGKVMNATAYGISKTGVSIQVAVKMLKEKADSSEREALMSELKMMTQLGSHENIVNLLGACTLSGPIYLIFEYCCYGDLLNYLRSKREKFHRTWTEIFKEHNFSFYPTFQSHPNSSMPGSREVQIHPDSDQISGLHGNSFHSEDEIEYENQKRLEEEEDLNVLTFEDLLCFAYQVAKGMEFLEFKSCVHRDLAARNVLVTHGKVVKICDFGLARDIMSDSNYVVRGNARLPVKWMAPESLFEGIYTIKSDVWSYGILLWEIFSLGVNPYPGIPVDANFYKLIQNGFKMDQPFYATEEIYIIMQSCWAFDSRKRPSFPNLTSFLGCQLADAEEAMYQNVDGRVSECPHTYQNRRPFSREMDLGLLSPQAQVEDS
In short: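 Compounds were tested against recombinant enzyme using AlphaScreen detection of tyrosine-phosphorylated biotin-poly(Glu4-Tyr) (30 nM final). The ATP concentration differed by construct: 10 μM for D835Y, 100 μM for ITD.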

[2] = target: c-Kit (Homo sapiens, UniProt P10721); test: c-Kit biochemical assay (per US 2007/0032519)
c-Kit, sequence (P10721 26-976): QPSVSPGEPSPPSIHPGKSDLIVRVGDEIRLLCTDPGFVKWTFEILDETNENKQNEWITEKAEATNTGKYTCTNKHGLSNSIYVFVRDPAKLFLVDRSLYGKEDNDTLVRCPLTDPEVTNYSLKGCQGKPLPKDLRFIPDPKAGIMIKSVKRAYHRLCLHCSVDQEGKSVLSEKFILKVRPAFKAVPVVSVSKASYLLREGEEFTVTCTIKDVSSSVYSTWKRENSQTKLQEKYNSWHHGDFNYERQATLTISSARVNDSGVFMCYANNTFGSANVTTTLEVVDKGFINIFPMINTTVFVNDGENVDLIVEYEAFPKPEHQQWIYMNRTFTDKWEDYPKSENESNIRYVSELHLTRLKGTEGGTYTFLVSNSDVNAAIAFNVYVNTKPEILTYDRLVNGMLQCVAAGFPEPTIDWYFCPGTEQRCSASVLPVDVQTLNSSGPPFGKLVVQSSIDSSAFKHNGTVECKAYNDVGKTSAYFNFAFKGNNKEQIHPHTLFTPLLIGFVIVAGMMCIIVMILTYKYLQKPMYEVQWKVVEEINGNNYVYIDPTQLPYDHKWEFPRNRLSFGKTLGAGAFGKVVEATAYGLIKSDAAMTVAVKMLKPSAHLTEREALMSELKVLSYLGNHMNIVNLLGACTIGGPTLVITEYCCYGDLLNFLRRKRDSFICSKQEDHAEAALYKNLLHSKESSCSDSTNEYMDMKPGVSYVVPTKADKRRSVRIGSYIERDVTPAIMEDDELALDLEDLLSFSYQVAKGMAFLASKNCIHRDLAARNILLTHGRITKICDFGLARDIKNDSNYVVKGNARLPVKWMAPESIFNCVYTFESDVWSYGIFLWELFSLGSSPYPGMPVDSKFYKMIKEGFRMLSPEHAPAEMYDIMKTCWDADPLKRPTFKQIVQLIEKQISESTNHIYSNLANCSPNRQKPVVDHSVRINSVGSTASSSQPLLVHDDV
In short: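 Biochemical kinase inhibition run per US 2007/0032519; values reported as binned IC50 ranges (0.0001–1 μM, 1–10 μM, 10–200 μM).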

IC50 [1] [µM]	IC50 [2] [µM]	SMILES
0.0001 to 1	10 to 200	COc1cnc2[nH]cc(-c3ccc4ncn(-c5cccc(C#N)c5)c4c3)c2c1 [P-135, 3-[6-(5-methoxy-1H-pyrrolo[2,3-b]pyridin-3-yl)benzimidazol-1-yl]benzonitrile]
0.0001 to 1	1 to 10	COc1cc(-c2cnc3[nH]cc(-c4ccc5ncn(C(C)(C)C)c5c4)c3n2)ccn1 [P-099, 7-(3-tert-butylbenzimidazol-5-yl)-2-(2-methoxy-4-pyridyl)-5H-pyrrolo[2,3-b]pyrazine]
0.0001 to 1	10 to 200	COc1cnc2[nH]cc(-c3ccc4ncn(-c5cccc(F)c5)c4c3)c2c1 [P-128, 1-(3-fluorophenyl)-6-(5-methoxy-1H-pyrrolo[2,3-b]pyridin-3-yl)benzimidazole]
0.0001 to 1	10 to 200	COc1cnc2[nH]cc(-c3ccc4ncn(-c5ccc(F)c(C)c5)c4c3)c2c1 [P-129, 1-(4-fluoro-3-methyl-phenyl)-6-(5-methoxy-1H-pyrrolo[2,3-b]pyridin-3-yl)benzimidazole]
0.0001 to 1	0.0001 to 1	CC(C)(C)n1cnc2ccc(-c3c[nH]c4ncc(-c5cccc(NS(C)(=O)=O)c5)nc34)cc21 [P-097, N-[3-[7-(3-tert-butylbenzimidazol-5-yl)-5H-pyrrolo[2,3-b]pyrazin-2-yl]phenyl]methanesulfonamide]
0.0001 to 1	1 to 10	CN(c1cccc(-c2cnc3[nH]cc(-c4ccc5ncn(C)c5c4)c3c2)c1)S(C)(=O)=O [P-120, N-methyl-N-[3-[3-(3-methylbenzimidazol-5-yl)-1H-pyrrolo[2,3-b]pyridin-5-yl]phenyl]methanesulfonamide]
0.0001 to 1		N#Cc1cc(-c2cnc3[nH]cc(-c4ccc5ncn(C6CCCNC6)c5c4)c3n2)ccc1F (stereo not shown) [P-238, 2-fluoro-5-[7-[3-(3-piperidyl)benzimidazol-5-yl]-5H-pyrrolo[2,3-b]pyrazin-2-yl]benzonitrile]
0.0001 to 1		N#Cc1cc(-c2cnc3[nH]cc(-c4ccc5ncn(C6CCCNC6)c5c4)c3c2)ccc1F (stereo not shown) [P-208, 2-fluoro-5-[3-[3-(3-piperidyl)benzimidazol-5-yl]-1H-pyrrolo[2,3-b]pyridin-5-yl]benzonitrile]
0.0001 to 1		COc1cc(-c2cnc3[nH]nc(-c4ccc5ncn(C(C)(C)C)c5c4)c3c2)ccn1 [P-272, 3-(1-(tert-butyl)-1H-benzo[d]imidazol-6-yl)-5-(2-methoxypyridin-4-yl)-1H-pyrazolo[3,4-b]pyridine]
0.0001 to 1		CCCS(=O)(=O)Nc1cccc(-c2cnc3[nH]cc(-c4ccc5ncn(C(C)(C)C)c5c4)c3c2)c1 [P-216, N-[3-[3-(3-tert-butylbenzimidazol-5-yl)-1H-pyrrolo[2,3-b]pyridin-5-yl]phenyl]propane-1-sulfonamide]
0.0001 to 1		CC(C)(C)n1cnc2ccc(-c3c[nH]c4ncc(-c5cccc(N6CCOCC6)c5)nc34)cc21 [P-226, 4-[3-[7-(3-tert-butylbenzimidazol-5-yl)-5H-pyrrolo[2,3-b]pyrazin-2-yl]phenyl]morpholine]
0.0001 to 1		CCCS(=O)(=O)Nc1cccc(-c2cnc3[nH]cc(-c4ccc5ncn(C(C)(C)C)c5c4)c3n2)c1 [P-225, N-[3-[7-(3-tert-butylbenzimidazol-5-yl)-5H-pyrrolo[2,3-b]pyrazin-2-yl]phenyl]propane-1-sulfonamide]
0.0001 to 1		COc1ncc(-c2cnc3[nH]cc(-c4ccc5ncn(C(C)(C)C)c5c4)c3c2)cn1 [P-265, 1-(tert-butyl)-6-(5-(2-methoxypyrimidin-5-yl)-1H-pyrrolo[2,3-b]pyridin-3-yl)-1H-benzo[d]imidazole]
0.0001 to 1		CCCS(=O)(=O)Nc1cccc(-c2cnc3[nH]cc(-c4ccc5ncn(C6CCCNC6)c5c4)c3c2)c1 (stereo not shown) [P-217, N-[3-[3-[3-(3-piperidyl)benzimidazol-5-yl]-1H-pyrrolo[2,3-b]pyridin-5-yl]phenyl]propane-1-sulfonamide]
0.0001 to 1		CC(C)n1cnc2ccc(-c3c[nH]c4ncc(-c5cnn(CC(F)(F)F)c5)cc34)cc21 [P-268, 1-isopropyl-6-[5-[1-(2,2,2-trifluoroethyl)pyrazol-4-yl]-1H-pyrrolo[2,3-b]pyridin-3-yl]benzimidazole]
0.0001 to 1		COc1cc(C#Cc2cnc3[nH]cc(-c4ccc5ncn(C6CCCNC6)c5c4)c3c2)ccn1 (stereo not shown) [P-241, 5-[2-(2-methoxy-4-pyridyl)ethynyl]-3-[3-(3-piperidyl)benzimidazol-5-yl]-1H-pyrrolo[2,3-b]pyridine]
0.0001 to 1		CC(C)(C)n1cnc2ccc(-c3c[nH]c4ncc(-c5ccc(N6CCOCC6)cc5)nc34)cc21 [P-100, 4-[4-[7-(3-tert-butylbenzimidazol-5-yl)-5H-pyrrolo[2,3-b]pyrazin-2-yl]phenyl]morpholine]
0.0001 to 1		CC(C)n1cnc2ccc(-c3c[nH]c4ncc(-c5cnn(C(F)F)c5)cc34)cc21 [P-267, 5-[1-(difluoromethyl)pyrazol-4-yl]-3-(3-isopropylbenzimidazol-5-yl)-1H-pyrrolo[2,3-b]pyridine]
0.0001 to 1		COc1cc(-c2cnc3[nH]cc(-c4ccc5ncn(C6CCCNC6)c5c4)c3n2)cc(OC)n1 (stereo not shown) [P-195, 2-(2,6-dimethoxy-4-pyridyl)-7-[3-(3-piperidyl)benzimidazol-5-yl]-5H-pyrrolo[2,3-b]pyrazine]
0.0001 to 1		CC(C)S(=O)(=O)Nc1cccc(-c2cnc3[nH]cc(-c4ccc5ncn(C(C)(C)C)c5c4)c3n2)c1 [P-232, N-[3-[7-(3-tert-butylbenzimidazol-5-yl)-5H-pyrrolo[2,3-b]pyrazin-2-yl]phenyl]propane-2-sulfonamide]
0.0001 to 1		COc1ncccc1C#Cc1cnc2[nH]cc(-c3ccc4ncn(C(C)(C)C)c4c3)c2n1 [P-250, 7-(3-tert-butylbenzimidazol-5-yl)-2-[2-(2-methoxy-3-pyridyl)ethynyl]-5H-pyrrolo[2,3-b]pyrazine]
0.0001 to 1		COc1cc(-c2cnc3[nH]cc(-c4ccc5ncn(C(C)(C)CO)c5c4)c3n2)ccn1 [P-186, 2-[6-[2-(2-methoxy-4-pyridyl)-5H-pyrrolo[2,3-b]pyrazin-7-yl]benzimidazol-1-yl]-2-methyl-propan-1-ol]
